The target of data set [1] is T1, Rac1 (Homo sapiens (Human), UniProt P63000). Description: Rac Activation AlphaScreen Assay (RacI AS). The data set is classed as biochemical. Here is the method: 2. Rac Activation AlphaScreen Assay (RacI AS)
AlphaScreen® assays were performed in 96-well microplates in a final reaction volume of 60 μL. Recombinant His-Rac1, recombinant GST-PBD (PAK Binding Domain), donor and acceptor beads (PerkinElmer), and inhibitors were incubated in exchange buffer (20 mM Tris pH 7.5, 50 mM NaCl, 1 mM MgCl2, 1 mM EDTA, 500 nM GTPyS (guanosine 5′-[Y-thio]triphosphate)) at 37° C. Readings were performed on a Tecan M 1000 pro microplate reader after 1 hour. Data was analyzed using the GraphPad Prism software (GraphPad Software, Inc.), and IC50 (dose leading to 50% disruption of complex) was calculated from the dose-response curves.
Background: Alpha assays give light when donor and acceptor beads are brought close together.

Data set [2] concerns MCF-7 human breast cancer cell line. As to the kind of experiment: Cell Viability Assay (MCF7). The settings on record: MCF7, three days after drug treatment. Type of data set: cell-based. Here is the method: 1. Cell Viability Assay (MCF7)
In order to determine a compound's effect on cell viability, PrestoBlue assays were performed as previously described by Kuhn et al. (2013) with modifications. MCF-7 human breast cancer and IGR-1 human melanoma cell lines were seeded into 384-well plates 24 hours prior to addition of drug. Cells are treated with 0 to 100 μM (concentrations) of compound solubilized in DMSO, adjusting the final concentration of DMSO to 0.5% in the well. Three days after drug treatment, cell viability was measured by adding Cell Titer Glo (Promega.; cat. No. G7570) according to the manufacturer's instructions. Briefly, Cell Titer Glo Substrate is diluted in Cell Titer Glo Buffer making the Cell Titer Glo Reagent. Cell Titer Glo Reagent is added to each well, mixed for 2 minutes to lyse cell, and then luficerase signal is read on a plate reader. Data is analyzed using the GraphPad Prism software (GraphPad Software, Inc.), and IC50 (dose leading to 50% cell death) was calculated from the dose-response curves. The percentage of living cells was then computed by comparison with control wells. Kuhn, Jonas et al., Assay and Drug Development Technologies, March 2013, Label-Free Cytotoxicity Screening Assay by Digital Holographic Microscopy.

Data set [3] in a line: Mouse Liver Microsome (MLM) Stability Assay. To be noted: for microsomal CLint / MLM Clearance (μL/min/mg protein): mouse liver microsomes. Type of data set: in vitro ADME. As for the experimental part:
5. Mouse Liver Microsome (MLM) Stability Assay
Incubation of test compounds with mouse liver microsomes in the presence of NADPH co-factor was used to assay the in vitro mouse liver microsome metabolic clearance rate. In the presence of the co-factor NADPH, which initiates the reaction, mouse liver microsomes were incubated with test compounds at 37° C. at fixed time intervals. After centrifugation, supernatants were measured by LC/M S. The amount of compound at each time interval was compared to the amount of compound present at the 0 minute timepoint and percentage compound remaining values were calculated. MLM intrinsic clearance (Clint) (μL/min/mg protein) is calculated based on compound half-life.
(Liver microsomes are vesicles of endoplasmic reticulum, rich in cytochrome P450 enzymes.)

Data set [4] concerns the target c-M et (Homo sapiens (Human), UniProt P08581). Description: commercial kinase screen (KinaseScan by Eurofins Discovery), c-Met. Type of data set: binding. To be noted: at a concentration that was substantially inhibitory for Rac1. As for the experimental part:
(§1) The disclosed compounds in general have no or minimal activity against c-M et. Representative compounds were tested in a commercial kinase screen of over 90 kinases (KinaseScan by Eurofins Discovery).

For data set [5], the system named is over 90 kinases. As to the kind of experiment: commercial kinase screen (KinaseScan by Eurofins Discovery). The settings on record: at a concentration that was substantially inhibitory for Rac1. Type of data set: binding. Here is the method:
as §1

In data set [6] the target is T1, Rac1. Description: Rac Activation AlphaScreen Assay (RacI AS). Type of data set: biochemical. To be noted: wild type Rac1, AlphaLisa assay; read-out: IC50 inhibitory concentration versus wild type Rac1.
The conditions of data set [7]: oral administration in mice; cited from earlier work.
Data set [8] has as its target Rac (Homo sapiens (Human), UniProt P63000). The settings on record: versus NSC23766; cited from earlier work.
In data set [9] the test system is estrogen positive and HER2 positive breast cancer, prostate cancer, melanoma and colorectal cancer. To be noted: single agent and in combination with standard of care; cited from earlier work.
[10] abbreviates: Table 4, comparator compounds, read-out: IC50.
The mark [11] stands for this setting: Table 1, Formula I-A, read-out: Activity.
Setting [12] is: NADPH, 37° C., read-out: MLM Clearance (μL/min/mg protein).
Setting [13] is: Table 2, Formula I-B, read-out: IC50.
[14] abbreviates: Table 3, other compounds of Formula I, read-out: IC50.

SMILES strings stand for the structures. Read-outs that look alike come from different tables or passages of the source. Some results are limits rather than exact numbers.

Sequence of c-M et (P08581 25-1390): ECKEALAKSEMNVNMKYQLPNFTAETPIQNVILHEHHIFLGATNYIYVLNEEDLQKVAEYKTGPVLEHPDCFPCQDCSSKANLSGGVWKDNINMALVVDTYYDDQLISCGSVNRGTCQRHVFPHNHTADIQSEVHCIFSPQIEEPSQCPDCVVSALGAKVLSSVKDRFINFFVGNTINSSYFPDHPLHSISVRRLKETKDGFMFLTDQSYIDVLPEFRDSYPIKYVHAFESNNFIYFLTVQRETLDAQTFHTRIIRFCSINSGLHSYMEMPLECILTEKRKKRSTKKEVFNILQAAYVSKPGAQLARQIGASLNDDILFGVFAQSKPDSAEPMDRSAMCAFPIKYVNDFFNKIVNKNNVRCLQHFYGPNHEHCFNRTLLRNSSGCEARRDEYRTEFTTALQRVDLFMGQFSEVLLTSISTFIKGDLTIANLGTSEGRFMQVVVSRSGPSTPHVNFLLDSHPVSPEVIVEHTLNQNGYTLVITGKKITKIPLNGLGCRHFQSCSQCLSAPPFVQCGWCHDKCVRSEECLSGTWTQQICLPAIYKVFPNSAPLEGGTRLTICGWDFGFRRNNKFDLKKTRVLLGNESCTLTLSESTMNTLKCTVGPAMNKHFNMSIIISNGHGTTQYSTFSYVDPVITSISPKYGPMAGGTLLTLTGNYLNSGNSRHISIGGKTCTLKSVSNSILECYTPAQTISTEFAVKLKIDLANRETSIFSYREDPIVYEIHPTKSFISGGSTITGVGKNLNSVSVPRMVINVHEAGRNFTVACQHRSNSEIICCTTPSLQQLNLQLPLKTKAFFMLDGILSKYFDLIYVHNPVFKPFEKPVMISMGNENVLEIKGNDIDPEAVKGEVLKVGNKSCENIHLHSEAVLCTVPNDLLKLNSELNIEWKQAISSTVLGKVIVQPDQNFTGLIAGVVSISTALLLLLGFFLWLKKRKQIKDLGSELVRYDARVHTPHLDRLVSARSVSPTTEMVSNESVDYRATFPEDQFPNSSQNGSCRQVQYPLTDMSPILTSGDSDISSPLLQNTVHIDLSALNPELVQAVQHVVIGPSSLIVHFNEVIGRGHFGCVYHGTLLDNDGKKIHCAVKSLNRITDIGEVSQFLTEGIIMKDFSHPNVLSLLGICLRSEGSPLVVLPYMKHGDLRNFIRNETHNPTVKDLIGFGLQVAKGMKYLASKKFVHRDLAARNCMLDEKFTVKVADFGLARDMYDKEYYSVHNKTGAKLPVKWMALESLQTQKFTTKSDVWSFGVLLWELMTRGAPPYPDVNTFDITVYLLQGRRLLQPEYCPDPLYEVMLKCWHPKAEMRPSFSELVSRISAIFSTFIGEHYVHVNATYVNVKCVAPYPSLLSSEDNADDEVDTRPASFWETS

As to `COc1ccc(C(=O)Nc2cccc(-c3ccc4nnc(-c5ccc(C)o5)n4n3)c2)cc1OC` [Comparator 1, reference compound], the IC50 in data set [1] (setting [10]) was 1000 to 10000 nM; in data set [1] (read-out: Rac1 IC50), above 5000 nM.
Turning to `COc1cc(C(=O)Nc2cccc(-c3ccc4nnc(-c5ccc(C)o5)n4n3)c2)cc(OC)c1OC` [Comparator 2, reference compound], the IC50 in data set [1] (setting [10]) is above 10000 nM; in [1] (read-out: Rac1 IC50), above 5000 nM.
On to `COc1ccc(OC)c(C(=O)Nc2cccc(-c3ccc4nnc(-c5ccc(C)o5)n4n3)c2)c1` [Comparator 3, reference compound], for which the IC50 in data set [1] (setting [10]) was above 10000 nM; in [1] (read-out: Rac1 IC50), above 5000 nM.
As for `COc1cccc(C(=O)Nc2cccc(-c3ccc4nnc(-c5ccc(C)o5)n4n3)c2)c1` [Compound 100], the values for the IC50 in [1] (setting [11]), in [1] (read-out: Rac1 IC50) and in data set [2] were at most 1000 nM, 80 nM and 11300 nM, respectively.
With `Cc1ccc(-c2nnc3ccc(-c4cccc(NC(=O)c5cccc(Cl)c5)c4)nn23)o1` [Compound 102, 3-chloro-N-(3-(3-(5-methylfuran-2-yl)-[1,2,4]triazolo[4,3-b]pyridazin-6-yl)phenyl)benzamide], the microsomal CLint in data set [3] (setting [12]) was 19.7 µL/min/mg. In addition, the IC50 in data set [1] (setting [11]) is at most 1000 nM; in data set [1] (read-out: Rac1 IC50), 520 nM; in data set [2] (Homo sapiens, 72 h) it was 1400 nM. In addition, the “activity against c-Met” value in [4] was “inactive”. The “activity against all kinases tested” value in [5] is “inactive”.
For `Cc1ccc(-c2nnc3ccc(-c4cccc(NC(=O)c5ccc(F)c(Cl)c5)c4)nn23)o1` [Compound 103, 3-chloro-4-fluoro-N-(3-(3-(5-methylfuran-2-yl)-[1,2,4]triazolo[4,3-b]pyridazin-6-yl)phenyl)benzamide], the microsomal CLint in data set [3] (setting [12]) is 4.5 µL/min/mg. Besides, the IC50 is at most 1000 nM in [1] (setting [11]); 430 nM in [1] (read-out: Rac1 IC50); 2300 nM in data set [2] (Homo sapiens, 72 h).
As to `Cc1ccc(-c2nnc3ccc(-c4cccc(NC(=O)c5cccc(F)c5)c4)nn23)o1` [Compound 105], the “MLM Clearance (μL/min/mg protein)” value in [3] (NADPH, 37° C.) was determined as 38.7 μL/min/mg protein. Also, the IC50 in data set [1] (setting [11]) is at most 1000 nM; in data set [1] (read-out: Rac1 IC50), 150 nM; in data set [2], 2000 nM.
Take `Cc1ccc(-c2nnc3ccc(-c4cccc(NC(=O)c5ccc(F)c(F)c5)c4)nn23)o1` [Compound 106]: the MLM clearance result in data set [3] is “below 50 μL/min/mg protein”. In addition, in [3] (NADPH, 37° C.), the “MLM Clearance (μL/min/mg protein)” value was 28.2 μL/min/mg protein. The IC50 is at most 1000 nM in [1] (setting [11]), 270 nM in data set [1] (read-out: Rac1 IC50) and 3500 nM in data set [2].
Regarding `Cc1ccc(-c2nnc3ccc(-c4cccc(NC(=O)c5cccc(SC(C)C)c5)c4)nn23)o1` [Compound 109, 3-(isopropylthio)-N-(3-(3-(5-methylfuran-2-yl)-[1,2,4]triazolo[4,3-b]pyridazin-6-yl)phenyl)benzamide], the IC50 in data set [1] (setting [11]) is at most 1000 nM.
In the case of `CCc1cccc(C(=O)Nc2cccc(-c3ccc4nnc(-c5ccc(C)o5)n4n3)c2)c1` [Compound 111, 3-ethyl-N-(3-(3-(5-methylfuran-2-yl)-[1,2,4]triazolo[4,3-b]pyridazin-6-yl)phenyl) benzamide], in [3], the MLM clearance entry is reported as “below 50 μL/min/mg protein”. Further, the IC50 in data set [1] (setting [11]) was at most 1000 nM.
With `CCc1cc(C(=O)Nc2cccc(-c3ccc4nnc(-c5ccc(C)o5)n4n3)c2)ccc1F` [Compound 114, 3-ethyl-4-fluoro-N-(3-(3-(5-methylfuran-2-yl)-[1,2,4]triazolo[4,3-b]pyridazin-6-yl)phenyl)benzamide], in data set [3] (mouse, read-out: MLM clearance), the microsomal CLint was below 50 µL/min/mg. Moreover, in [1] (setting [11]), the IC50 was at most 1000 nM.
With `Cc1ccc(-c2nnc3ccc(-c4cccc(NC(=O)c5cccc(Cl)c5)c4)nn23)o1` [Compound 119, 3-chloro-N-(3-(3-(5-(methyl-d3)furan-2-yl)-[1,2,4]triazolo[4,3-b]pyridazin-6-yl)phenyl) benzamide], the IC50 in [1] (read-out: Rac1 IC50) came out at 1500 nM; in [2] it was 6300 nM.
Take `COc1cccc(C(=O)Nc2cccc(-c3ccc4nnc(-c5cncs5)n4n3)c2)c1` [Compound 200]: the “MLM Clearance (μL/min/mg protein)” value in data set [3] (NADPH, 37° C.) stood at 54 μL/min/mg protein. The IC50 is at most 1000 nM in data set [1] (setting [13]), 240 nM in data set [1] (read-out: Rac1 IC50) and 1800 nM in data set [2].
In the case of `O=C(Nc1cccc(-c2ccc3nnc(-c4cncs4)n3n2)c1)c1ccc(F)cc1` [Compound 201, 4-fluoro-N-(3-(3-(thiazol-5-yl)-[1,2,4]triazolo[4,3-b]pyridazin-6-yl)phenyl)benzamide], in [3] (setting [12]), the microsomal CLint was found to be 15.5 µL/min/mg. The IC50 was at most 1000 nM in [1] (setting [13]); 170 nM in data set [1] (read-out: Rac1 IC50); 3100 nM in [2] (Homo sapiens, 72 h).
`Cc1ccc(-c2nnc3ccc(-c4cccc(NC(=O)c5cccc(Cl)c5)c4)nn23)s1` [Compound 303]: the IC50 in [1] (setting [14]) was 1000 to 10000 nM; in data set [1] (read-out: Rac1 IC50), above 5000 nM; in [2], above 10000 nM.
Take `Cc1ccc(-c2nnc3ccc(-c4cccc(NC(=O)c5ccc(F)cc5)c4)nn23)s1` [Compound 304]: the IC50 is at most 1000 nM in [1] (setting [14]), 690 nM in [1] (read-out: Rac1 IC50) and 19800 nM in data set [2].
For the compound `CCn1c2ccccc2c2cc(Nc3ccnc(NCCCN4CCOCC4)n3)ccc21` [EHop-016], the IC50 in [6] is around 10000 nM. Besides, the systemic exposure entry in [7] was “low systemic exposure”. Besides, in data set [8], the “efficiency as an inhibitor of Rac activity relative to NSC23766” value was 100 fold.
Consider `FC(F)(F)c1ccc2c(SCCCCCCn3cnc(CN4CCOCC4)c3)ccnc2c1` [GY S32661], for which the “activity against animal models of cancer” value in [9] is on record as “very good activity”.

Values taken from patent publication US20250346604A1, “TRIAZOLOPYRIDAZINE COMPOUNDS USEFUL AS RAC1 INHIBITORS” (Revere Pharmaceuticals, priority 2022, published 2025).
